Data reported in US20250002526A1, “PHARMACEUTICAL COMPOSITION HAVING ANTI-CANCER IMMUNOSTIMULATING EFFECT AND/OR IMMUNE CHECKPOINT INHIBITION POTENTIATING EFFECT” (KYUSHU UNIVERSITY, NATIONAL UNIVERSITY CORPORATION, priority 2021, published 2025).
pIC50: −log10 of the molar value. Where a name gives a salt, the structure may show the parent alone. Read-outs that look alike come from different tables or passages of the source.

System: SULT2B1b-mediated CS production in E0771-SULT cells
Experiment: CS production inhibitory effect in E0771-SULT cells (LC/MS/MS quantification of CS)
Type: cell-based, mouse
Details: for activity at 10 µM: relative to control (100%); for pIC50: read-out: IC50 value (CS production)
Protocol: CS in each human cancer tissue sample was quantified by a method described in NPL 2. To monitor the amounts of CS and/or oxysterol generated in E0771, 3LL, EG.7-OVA, and MC38 cells irrespective of the presence or absence of SULT2B1b expression, cells of each type were seeded in a 6-well plate at 5×10^5 cells/well, and the culture supernatant and cell pellet were collected after 24 hours. Subsequently, deuterium-labeled internal standard (IS) compounds (d7-CS [[…]] and d6-25-hydroxycholesterol) were added to fractions of the culture supernatant and cell pellet, each of which was subjected to extraction with 1 mL of extraction solvent (methanol/chloroform/water=5:2:2 [v/v/v]) to extract CS and oxysterol from the culture supernatant or cell pellet.
Each sample was vigorously mixed with a vortex for 1 minute, and then ultrasonicated for 5 minutes. Thereafter, the sample was centrifuged at 16,000×g and 4° C. for 5 minutes, and the supernatant (700 μl) was collected in a clean tube. Into this, 235 μl of chloroform and 155 μl of water were added and mixed, and the resultant was then subjected to vortexing followed by centrifugation to separate into an aqueous layer and an organic layer. Subsequently, 200 μl of the lowermost layer was dried under a nitrogen flow.
The dried sample was dissolved in 50 μl of methanol, and CS and oxysterol therein were quantified by liquid chromatography-tandem mass spectrometry (LC/MS/MS) with a triple quadrupole mass spectrometer (LCMS-8060; Shimadzu Corporation) equipped with an electrospray ionization (ESI) ion source in a multiple reaction monitoring (MRM) mode.
• Column: Inertsil ODS-4 (2.1×150 mm; particle size: 3 μm; GL Sciences Inc.) • Column temperature: 40° C. • Flow rate: 0.3 ml/min • Mobile phase: (A) water/acetonitrile (1:2, v/v) containing 5 mM ammonium acetate (B) Methanol/Isopropanol (1:19, v/v) Containing 5 mM Ammonium Acetate • Gradient curve: 0 min→22 min: (B) 0%→100%, • 22 min→27 min: (B) 100%, • 27 min→27.1 min: (B) 100%→0%, • 27.1 min→30 min: (B) 0% • Injection volume: 5 μl • Mass spectrometry mode: positive and negative ion modes • Electrospray voltage: 4 kV in positive ion mode, −3.5 kV in negative ion mode • Nebulizer gas flow rate: 3.0 L/min • Drying gas flow rate: 10.0 L/min • Desolvation temperature: 250° C. • Heat block temperature: 400° C. • Detector voltage: 2.16 kV • Used were MRM mode and 2 msec of dwell time per channel.
Absolute CS and oxysterol contents were calculated from calibration curves. MRM calibration curves were prepared with chromatographic peak areas for the analytes relative to peak areas for internal standards through three times of analysis for standard solutions.
The CS production effects of test compounds (compounds 1 to 19, 21, 23, 25, and 27 to 32) were evaluated with the mouse breast cancer cell line E0771 expressing SULT2B1b (E0771-SULT cells).
Specifically, as in the above description in experimental procedure (12), E0771-SULT cells were seeded in a 6-well plate at a proportion of 5×10^5 cells/well, and cultured in the presence or absence (control) of each test compound for 24 hours. After culturing, CS generated in E0771-SULT cells was quantified by LC/MS/MS according to the description in experimental procedure (12). The CS production capacity (% activity) of cells cultured in the presence of each test compound was evaluated from the percentage relative to the CS production level (control) (100%) in E0771-SULT cells cultured in the absence of the test compound, and the CS production inhibitory effect of the test compound was evaluated.

[1] = Mus musculus, 24 h, read-out: CS production % activity at 10 μM, E0771-SULT cells, 24 hours, test compound 10 μM (Table 1)
[2] = Mus musculus, 24 h, read-out: CS production % activity at 10 μM, E0771-SULT cells, 24 hours, third concentration column of Table 1, head again printed 10 μM
[3] = Mus musculus, 24 h, read-out: CS production % activity at 20 μM, E0771-SULT cells, 24 hours, test compound 20 μM, relative to control without compound (100%)
[4] = Mus musculus, 24 h, E0771-SULT cells, 24 hours, test compound 20 μM, relative to control without compound (100%), read-out: CS production % activity at 20 μM

## C[C@H](CCC(=O)O)[C@H]1CC[C@H]2[C@@H]3CC=C4C[C@@H](OC(=O)C(F)(F)F)CC[C@]4(C)[C@H]3CC[C@]12C [Compound 2, (R)-4-((3S,8S,9S,10R,13R,14S,17R)-10,13-dimethyl-3-(2,2,2-trifluoroacetoxy)-2,3,4,7,8,9,10,11,12,13,14,15,16,17-tetradecahydro-1H-cyclopenta[a]phenanthren-17-yl)pentanoic acid]
[1]
  activity at 10 µM: 34%
[2]
  activity at 10 µM: 52.5%
[3]
  activity at 20 µM: 36.8%
Mus musculus
  pIC50: 5.22

## COC(=O)CC[C@@H](C)[C@H]1CC[C@H]2[C@@H]3CC=C4C[C@@H](OC)CC[C@]4(C)[C@H]3CC[C@]12C [Compound 5, methyl (R)-4-((3S,8S,9S,10R,13R,14S,17R)-3-methoxy-10,13-dimethyl-2,3,4,7,8,9,10,11,12,13,14,15,16,17-tetradecahydro-1H-cyclopenta[a]phenanthren-17-yl)pentanoate]
[4]
  activity at 20 µM: 92.3%

## CC(CCC(=O)N1CCSCC1)C1CCC2C3CC=C4CC(O)CCC4(C)C3CCC12C [Compound 9, (R)-4-((3S,8S,9S,10R,13R,14S,17R)-3-hydroxy-10,13-dimethyl-2,3,4,7,8,9,10,11,12,13,14,15,16,17-tetradecahydro-1H-cyclopenta[a]phenanthren-17-yl)-1-thiomorpholinopentan-1-one]
[3]
  activity at 20 µM: 87.2%

## C[C@H](CCC(=O)N1CCOCC1)[C@H]1CC[C@H]2[C@@H]3CC=C4C[C@@H](O)CC[C@]4(C)[C@H]3CC[C@]12C [Compound 11, (R)-4-((3S,8S,9S,10R,13R,14S,17R)-3-hydroxy-10,13-dimethyl-2,3,4,7,8,9,10,11,12,13,14,15,16,17-tetradecahydro-1H-cyclopenta[a]phenanthren-17-yl)-1-morpholinopentan-1-one]
[3]
  activity at 20 µM: 87.4%

## C[C@H](CCC(=O)N1CCOCC1)[C@H]1CC[C@H]2[C@@H]3CC=C4C[C@H](n5cc(CN(C)C)nn5)CC[C@]4(C)[C@H]3CC[C@]12C [Compound 13, (R)-4-((3R,8S,9S,10R,13R,14S,17R)-3-(4-((dimethylamino)methyl)-1H-1,2,3-triazol-1-yl)-10,13-dimethyl-2,3,4,7,8,9,10,11,12,13,14,15,16,17-tetradecahydro-1H-cyclopenta[a]phenanthren-17-yl)-1-morpholinopentan-1-one]
[3]
  activity at 20 µM: 65.8%

## C[C@H](CCC(=O)O)[C@H]1CC[C@H]2[C@@H]3CC[C@@H]4C[C@H](O)CC[C@]4(C)[C@H]3CC[C@]12C [Compound 14, (4R)-4-[(3R,5R,8R,9S,10S,13R,14S,17R)-3-hydroxy-10,13-dimethyl-2,3,4,5,6,7,8,9,11,12,14,15,16,17-tetradecahydro-1H-cyclopenta[a]phenanthren-17-yl]pentanoic acid]
Mus musculus, E0771-SULT cells, 24 hours, test compound 20 μM, relative to control without compound (100%), read-out: CS production % activity at 20 μM
  activity at 20 µM: 31.5%
Mus musculus, E0771-SULT cells, 24 hours, third concentration column of Table 1, head again printed 10 μM, read-out: CS production % activity at 10 μM
  activity at 10 µM: 62%
Mus musculus, E0771-SULT cells
  pIC50: 5.14

## CC(=O)C1=CC[C@H]2[C@@H]3CC=C4CC(OC(=O)CCN5CCOCC5)CC[C@]4(C)[C@H]3CC[C@]12C (stereo partly drawn) [Compound 15, (8R,9S,10R,13S,14S)-17-acetyl-10,13-dimethyl-2,3,4,7,8,9,10,11,12,13,14,15-dodecahydro-1H-cyclopenta[a]phenanthren-3-yl3-morpholinopropanoate]
[1]
  activity at 10 µM: 40.9%
[2]
  activity at 10 µM: 63%
[3]
  activity at 20 µM: 38.9%
Mus musculus
  pIC50: 5.11

## CC(=O)C1=CC[C@H]2[C@@H]3CC[C@H]4C[C@H](OC(=O)CCN5CCOCC5)CC[C@]4(C)[C@H]3CC[C@]12C [Compound 16, (3R,5S,8R,9S,10S,13S,14S)-17-acetyl-10,13-dimethyl-2,3,4,5,6,7,8,9,10,11,12,13,14,15-tetradecahydro-1H-cyclopenta[a]phenanthren-3-yl3-morpholinopropanoate]
[1]
  activity at 10 µM: 49.9%
[2]
  activity at 10 µM: 55.7%
[3]
  activity at 20 µM: 42.3%
Mus musculus
  pIC50: 5.02

## COC(=O)C1CCCN1C(=O)CCC(=O)OCC(=O)C1(OC(C)=O)CCC2C3CCC4=CC(=O)CCC4(C)C3CCC21C [Compound 18, methyl (4-(2-8((8R,9S,10R,13S,14S,17R)-17-acetoxy-10,13-dimethyl-3-oxo-2,3,6,7,8,9,10,11,12,13,14,15,16,17-tetradecahydro-1H-cyclopenta[a]phenanthren-17-yl)-2-oxoethoxy)-4-oxobutanoyl)-L-prolinate]
[1]
  activity at 10 µM: 60.6%
[2]
  activity at 10 µM: 71.7%
[3]
  activity at 20 µM: 54.8%
Mus musculus
  pIC50: 4.80

## C#CCOCCNC(=O)CC[C@@H](C)[C@H]1CC[C@H]2[C@@H]3CC=C4C[C@@H](OS(=O)(=O)O)CC[C@]4(C)[C@H]3CC[C@]12C [Compound 21, (3S,8S,9S,10R,13R,14S,17R)-10,13-dimethyl-17-((R)-5-oxo-5-((2-(prop-2-yn-1-yloxy)ethyl)amino)pentan-2-yl)-2,3,4,7,8,9,10,11,12,13,14,15,16,17-tetradecahydro-1H-cyclopenta[a]phenanthren-3-yl sulfate]
[3]
  activity at 20 µM: 85.7%

## C#CCOCCOCCNC(=O)CC[C@@H](C)[C@H]1CC[C@H]2[C@@H]3CC=C4C[C@@H](OS(=O)(=O)O)CC[C@]4(C)[C@H]3CC[C@]12C [Compound 23, (3S,8S,9S,10R,13R,14S,17R)-10,13-dimethyl-17-((R)-5-oxo-5-((2-(2-(prop-2-yn-1-yloxy)ethoxy)ethyl)amino)pentan-2-yl)-2,3,4,7,8,9,10,11,12,13,14,15,16,17-tetradecahydro-1H-cyclopenta[a]phenanthren-3-yl sulfate]
[3]
  activity at 20 µM: 70.1%

## C#CCOCCOCCOCCOCCNC(=O)CC[C@@H](C)[C@H]1CC[C@H]2[C@@H]3CC=C4C[C@@H](OS(=O)(=O)O)CC[C@]4(C)[C@H]3CC[C@]12C [Compound 25, (3S,8S,9S,10R,13R,14S,17R)-10,13-dimethyl-17-((R)-17-oxo-4,7,10,13-tetraoxa-16-azahenicos-1-yn-20-yl)-2,3,4,7,8,9,10,11,12,13,14,15,16,17-tetradecahydro-1H-cyclopenta[a]phenanthren-3-yl sulfate]
[3]
  activity at 20 µM: 60.1%

## C#CCOCCOCCOCCOCCOCCOCCNC(=O)CC[C@@H](C)[C@H]1CC[C@H]2[C@@H]3CC=C4C[C@@H](OS(=O)(=O)O)CC[C@]4(C)[C@H]3CC[C@]12C [Compound 27, (3S,8S,9S,10R,13R,14S,17R)-10,13-dimethyl-17-((R)-23-oxa-4,7,10,13,16,19-hexaoxa-22-azaheptacos-1-yn-26-yl)-2,3,4,7,8,9,10,11,12,13,14,15,16,17-tetradecahydro-1H-cyclopenta[a]phenanthren-3-yl sulfate]
E0771-SULT cells, 24 hours, test compound 20 μM, relative to control without compound (100%)
  CS production % activity at 20 μM: 59.0%

## C[C@]12CCC(OC(=O)CCN3CCOCC3)CC1=CC[C@@H]1[C@@H]2CC[C@]2(C)C(=O)CC[C@@H]12 (stereo partly drawn) [Compound 28, (8R,9S,10R,13S,14S)-10,13-dimethyl-17-oxo-2,3,4,7,8,9,10,11,12,13,14,15,16,17-tetradecahydro-1H-cyclopenta[a]phenanthren-3-yl 3-morpholinopropanoate]
[4]
  activity at 20 µM: 42%
Mus musculus, 24 h, E0771-SULT cells, 24 hours, compound groups B-D, 1 μM, read-out: CS production % activity at 1 μM
  activity at 1 µM: 37.8%
Mus musculus, E0771-SULT cells
  pIC50: 5.20
